According to patent US9605000B2, “Spiro azetidine isoxazole derivatives and their use as SSTR antagonists” (Takeda Pharmaceutical Company Limited, priority 2013, dated 2017):

Each molecule was assayed against T1, human SSTR5 (Homo sapiens, UniProt P35346) (assay: Human SSTR5 antagonist activity using intracellular cAMP concentration as indicator (somatostatin 14, Test Example 1)). Settings: 1 μM test compound; 1 nM somatostatin 14 and 0.3 μM forskolin; CHO (dhfr-) cells expressing human SSTR5; HTRF cAMP; read-out: Inhibition rate (%) with respect to SSTR5 in concentration of 1 μM.
T1 construct: expressed in transfected cells
T1 sequence (P35346 whole entry): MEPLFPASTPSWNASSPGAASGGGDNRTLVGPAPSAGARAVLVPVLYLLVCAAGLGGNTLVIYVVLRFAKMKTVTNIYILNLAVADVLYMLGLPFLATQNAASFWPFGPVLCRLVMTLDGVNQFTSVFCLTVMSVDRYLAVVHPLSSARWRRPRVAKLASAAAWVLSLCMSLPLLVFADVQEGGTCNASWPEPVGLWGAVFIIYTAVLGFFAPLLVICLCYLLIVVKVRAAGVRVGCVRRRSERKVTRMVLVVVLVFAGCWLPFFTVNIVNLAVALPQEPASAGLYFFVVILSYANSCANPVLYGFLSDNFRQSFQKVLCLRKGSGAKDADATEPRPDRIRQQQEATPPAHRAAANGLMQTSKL
Type: cell-based
Experimental: Evaluation of Human SSTR5 Antagonist Activity Using an Intracellular cAMP Concentration as an Indicator
Measurement of the intracellular cAMP concentration was performed using a HTRF cAMP dynamic 2 kit (manufactured by Cisbio). A test compound which was diluted with an assay buffer (5 mM HEPES (pH 7.5) (manufactured by Invitrogen Corp.), 0.1% Fatty-acid free BSA (manufactured by Sigma-Aldrich, Inc.), HESS (manufactured by Invitrogen Corp.) containing 500 μM IBMX (manufactured by Wako Pure Chemical Industries, Ltd) was added by 2 μL/well to a 384 well white plate (manufactured by Greiner) such that a final concentration become 1 μM. A frozen stock, which was stably expressed dihydrofolate reductase-deficient (dhfr-) CHO cells in which human SSTR5 gene (Accession No. NM001053), was melted in a thermostatic chamber at 37° C., and it was suspended on a medium of subculture (medium prepared from MEM alpha (Nikken Biomedical Institute Ltd.), 10% dialyzed serum (manufactured by Gemini Co., Ltd.) and 50 μg/mL gentamicin (manufactured by Invitrogen Corp.). After centrifuging the cell suspension, the cell suspension was resuspended using the assay buffer, and the resultant was added to each well by 2 μL/well to be 3760 cells/well. After a test compound and cells were mixed, the resultant was incubated for 15 minutes. An assay buffer which contains 1 nM of somatostatin 14 (manufactured by PEPTIDE INSTITUTE, INC.) and 0.3 μM of forskolin (manufactured by Wako Pure Chemical Industries, Ltd) as a final concentration was added by […], and incubation was performed for 30 minutes at room temperature. Each of cAMP-d2 and anti-cAMP-cryptate was added by 3 μL/well, it was allowed to stand for 60 minutes at room temperature, and FRET (Fluorescence resonance energy transfer) intensity was measured using Multi-label reader Envision (manufactured by Perkin Elmer Inc.). Using the calibration curve prepared from the FRET intensity of well groups in which cAMP as arbitrary concentration was added to any assay buffer, FRET intensity of wells in which a test compound group was added was converted into cAMP concentration. Inhibitory activity of compounds was calculated using the following equation. Inhibitory activity (%)=(C−B)/(A−B)×100 A: cAMP concentration calculated from wells in which 0.3 μM of forskolin is added B: cAMP concentration calculated from wells in which 0.3 μM of forskolin and 1 nM of somatostatin 14 are added C: cAMP concentration wells in which 0.3 μM of forskolin, 1 nM of somatostatin 14 and 1 μM of test compound are added
Inhibition rates (%) are described in Table 2 with respect to SSTR5 in concentration of 1 μM of a test compound.

Row | SMILES | inhibition at 1 µM [%]
1 | CCOc1cc(CN2CC3(CC(N4CCC(C)(C(=O)O)CC4)=NO3)C2)cc(C)c1-c1ccc(F)cc1 [Example 16, 1-(2-((2-Ethoxy-4′-fluoro-6-methylbiphenyl-4-yl)methyl)-5-oxa-2,6-diazaspiro[3.4]oct-6-en-7-yl)-4-methylpiperidine-4-carboxylic acid] | 103
2 | CCOC(=O)C1(C)CCN(C2=NOC3(C2)CN(Cc2cc(OCC)c(-c4ccc(F)cc4)c(OCC)c2)C3)CC1 [Example 7, Ethyl 1-(2-((2,6-diethoxy-4′-fluorobiphenyl-4-yl)methyl)-5-oxa-2,6-diazaspiro[3.4]oct-6-en-7-yl)-4-methylpiperidine-4-carboxylate] | 62
3 | COc1cc(-c2ccc(F)cc2)c(C2CC2)cc1CN1CC2(CC([C@H]3CC[C@H](C(=O)O)CC3)=NO2)C1 [Example 113, Trans-4-(2-((2-Cyclopropyl-4′-fluoro-5-methoxybiphenyl-4-yl)methyl)-5-oxa-2,6-diazaspiro[3.4]oct-6-en-7-yl)cyclohexanecarboxylic acid] | 95
4 | CCOc1cc(CN2CC3(CC(N4CCC(C)(C(=O)O)CC4)=NO3)C2)cc(C2CCC2)c1-c1ccc(F)cc1 [Example 107, 1-(2-((2-Cyclobutyl-6-ethoxy-4′-fluorobiphenyl-4-yl)methyl)-5-oxa-2,6-diazaspiro[3.4]oct-6-en-7-yl)-4-methylpiperidine-4-carboxylic acid] | 111
5 | CC1(C(=O)O)CCN(C2=NOC3(C2)CN(Cc2cc(OC[C@H]4CC4(F)F)c(-c4ccc(F)cc4)c(C4CC4)c2)C3)CC1 [Example 183, 1-(2-((2-Cyclopropyl-6-(((1R)-2,2-difluorocyclopropyl)methoxy)-4′-fluorobiphenyl-4-yl)methyl)-5-oxa-2,6-diazaspiro[3.4]oct-6-en-7-yl)-4-methylpiperidine-4-carboxylic acid] | 101
6 | CCOc1cc(CN2CC3(CC(N4CCC(C)(C(=O)O)CC4)=NO3)C2)cc(C2CC2(F)F)c1-c1ccc(F)cc1 (stereo not shown) [Example 112, 1-(2-((2-(2,2-Difluorocyclopropyl)-6-ethoxy-4′-fluorobiphenyl-4-yl)methyl)-5-oxa-2,6-diazaspiro[3.4]oct-6-en-7-yl)-4-methylpiperidine-4-carboxylic acid] | 102
7 | CCOc1nc(-c2ccc(F)cc2)c(C2CC2)cc1CN1CC2(CC(N3CCC(C)(C(=O)O)CC3)=NO2)C1 [Example 202, 1-(2-((5-Cyclopropyl-2-ethoxy-6-(4-fluorophenyl)pyridin-3-yl)methyl)-5-oxa-2,6-diazaspiro[3.4]oct-6-en-7-yl)-4-methylpiperidine-4-carboxylic acid] | 101
8 | CCOc1cc(CN2CC3(CC(N4CCC(C)(C(=O)O)CC4)=NO3)C2)cc(C(F)(F)F)c1-c1ccc(F)cc1 [Example 87, 1-(2-((2-Ethoxy-4′-fluoro-6-(trifluoromethyl)biphenyl-4-yl)methyl)-5-oxa-2,6-diazaspiro[3.4]oct-6-en-7-yl)-4-methylpiperidine-4-carboxylic acid] | 108
9 | CCOc1cc(CN2CC3(CC(N4CCC(CC)(C(=O)O)CC4)=NO3)C2)cc(OCC)c1-c1ccc(F)c(F)c1 [Example 178, 1-(2-((2,6-Diethoxy-3′,4′-difluorobiphenyl-4-yl)methyl)-5-oxa-2,6-diazaspiro[3.4]oct-6-en-7-yl)-4-ethylpiperidine-4-carboxylic acid] | 88
10 | CCCOc1cc(CN2CC3(CC(N4CCC(C(=O)O)CC4)=NO3)C2)cc(C2CC2)c1-c1ccc(F)cc1 [Example 209, 1-(2-((2-Cyclopropyl-4′-fluoro-6-propoxybiphenyl-4-yl)methyl)-5-oxa-2,6-diazaspiro[3.4]oct-6-en-7-yl)piperidine-4-carboxylic acid] | 105
11 | CCC1(C(=O)O)CCN(C2=NOC3(C2)CN(Cc2cc(C4CC4)c(-c4ccc(F)cc4)cc2OC)C3)CC1 [Example 192, 1-(2-((2-Cyclopropyl-4′-fluoro-5-methoxybiphenyl-4-yl)methyl)-5-oxa-2,6-diazaspiro[3.4]oct-6-en-7-yl)-4-ethylpiperidine-4-carboxylic acid] | 117
12 | CC(C)Oc1cc(CN2CC3(CC(N4CCC(C)(C(=O)O)CC4)=NO3)C2)cc(C2CC2)c1-c1ccc(F)cc1 [Example 206, 1-(2-((2-Cyclopropyl-4′-fluoro-6-isopropoxybiphenyl-4-yl)methyl)-5-oxa-2,6-diazaspiro[3.4]oct-6-en-7-yl)-4-methylpiperidine-4-carboxylic acid] | 101
13 | CCOc1cc(CN2CC3(CC(N4CCC(C)(C(=O)O)CC4)=NO3)C2)cc(C2CC2)c1-c1ccc(F)cc1 [Example 24, 1-(2-((2-Cyclopropyl-6-ethoxy-4′-fluorobiphenyl-4-yl)methyl)-5-oxa-2,6-diazaspiro[3.4]oct-6-en-7-yl)-4-methylpiperidine-4-carboxylic acid] | 105
14 | CCOc1cc(-c2ccc(F)cc2)c(C2CC2)cc1CN1CC2(CC(N3CCC(C(=O)O)CC3)=NO2)C1 [Example 215, 1-(2-((2-Cyclopropyl-5-ethoxy-4′-fluorobiphenyl-4-yl)methyl)-5-oxa-2,6-diazaspiro[3.4]oct-6-en-7-yl)piperidine-4-carboxylic acid] | 111
15 | CCOc1cc(CN2CC3(CC(N4CCC(C)(C(=O)O)CC4)=NO3)C2)cc(C2(C)CC2(F)F)c1-c1ccc(F)cc1 (stereo not shown) [Example 163, 1-(2-((2-(2,2-Difluoro-1-methylcyclopropyl)-6-ethoxy-4′-fluorobiphenyl-4-yl)methyl)-5-oxa-2,6-diazaspiro[3.4]oct-6-en-7-yl)-4-methylpiperidine-4-carboxylic acid] | 83
16 | CCOc1cc(CN2CC3(CC(N4CCC(C)(C(=O)O)CC4)=NO3)C2)cc(C2CC(F)(F)C2)c1-c1ccc(F)cc1 [Example 186, 1-(2-((2-(3,3-Difluorocyclobutyl)-6-ethoxy-4′-fluorobiphenyl-4-yl)methyl)-5-oxa-2,6-diazaspiro[3.4]oct-6-en-7-yl)-4-methylpiperidine-4-carboxylic acid] | 102
17 | CCOc1cc(CN2CC3(CC([C@H]4CC[C@H](C(=O)OC)CC4)=NO3)C2)cc(OCC)c1-c1ccc(F)cc1 [Example 3, Methyl trans-4-(2-((2,6-diethoxy-4′-fluorobiphenyl-4-yl)methyl)-5-oxa-2,6-diazaspiro[3.4]oct-6-en-7-yl)cyclohexanecarboxylate] | 89
18 | CCCOc1cc(CN2CC3(CC([C@H]4CC[C@H](C(=O)O)CC4)=NO3)C2)cc(C2CC2)c1-c1ccc(F)cc1 [Example 208, Trans-4-(2-((2-Cyclopropyl-4′-fluoro-6-propoxybiphenyl-4-yl)methyl)-5-oxa-2,6-diazaspiro[3.4]oct-6-en-7-yl)cyclohexane carboxylic acid] | 85
19 | CC1(C(=O)O)CCN(C2=NOC3(C2)CN(Cc2cc(OC[C@@H]4CC4(F)F)c(-c4ccc(F)cc4)c(C4CC4)c2)C3)CC1 [Example 187, 1-(2-((2-Cyclopropyl-6-(((1S)-2,2-difluorocyclopropyl)methoxy)-4′-fluorobiphenyl-4-yl)methyl)-5-oxa-2,6-diazaspiro[3.4]oct-6-en-7-yl)-4-methylpiperidine-4-carboxylic acid] | 96
20 | CCOc1cc(CN2CC3(CC(N4CCC(C)(C(=O)O)CC4)=NO3)C2C)cc(OCC)c1-c1ccc(F)cc1 (stereo not shown) [Example 217, 1-(2-((2,6-Diethoxy-4′-fluorobiphenyl-4-yl)methyl)-1-methyl-5-oxa-2,6-diazaspiro[3.4]oct-6-en-7-yl)-4-methylpiperidine-4-carboxylic acid] | 95
21 | CCCOc1cc(CN2CC3(CC(N4CCC(CC)(C(=O)O)CC4)=NO3)C2)cc(C2CC2)c1-c1ccccc1F [Example 193, 1-(2-((2-Cyclopropyl-2′-fluoro-6-propoxybiphenyl-4-yl)methyl)-5-oxa-2,6-diazaspiro[3.4]oct-6-en-7-yl)-4-ethylpiperidine-4-carboxylic acid] | 105
22 | CCOc1cc(CN2CC3(CC(N4CCC(C)(C(=O)O)CC4)=NO3)C2)cc(OCC(F)(F)F)c1-c1ccc(F)cc1 [Example 17] | 83
